Experimental data as given in patent publication US6465501B2, “Azolidines as β3 adrenergic receptor agonists” (Wyeth, priority 2000, dated 2002).
Where a name gives a salt, the structure may show the parent alone.

SMILES | melting point
O=C1NC(=O)C(N(Cc2ccc(Br)cc2)c2ccc(CCNC[C@H](O)COc3ccc(O)cc3)cc2)S1 (stereo partly shown) (hydrate or solvate) [Example 28, 5-[(4-Bromo-benzyl)-(4-{2-[(2 S)-2-hydroxy-3-(4-hydroxy-phenoxy)-propylamino]-ethyl}-phenyl)-amino]-thiazolidine-2,4-dione] | 79 °C (dec.)
COc1ccc(OC[C@@H](O)CNCCc2ccc(NC3SC(=O)NC3=O)cc2)cc1 (stereo partly shown) (as salt: salt) (hydrate or solvate) [Example 10, 5-[4-(2-{[(2 S)-2-Hydroxy-3-(4-methoxyphenoxy)propyl]amino}ethyl)anilino]-1,3-thiazolidine-2,4-dione] | 56 °C
CN1C(=O)SC(Nc2ccc(CCNC[C@H](O)c3cccc(Cl)c3)cc2)C1=O (stereo partly shown) [Example 3, 5-[4-(2-{[(2 R)-2-(3-Chlorophenyl)-2-hydroxyethyl]amino}ethyl)anilino]-3-methyl-1,3-thiazolidine-2,4-dione] | 129 to 131 °C
O=C1NC(=O)C(Nc2ccc(CCNC[C@H](O)COc3ccc(Oc4ccccc4)cc3)cc2)S1 (stereo partly shown) (as salt: salt) [Example 1, 5-[4-(2-{[(2 S)-2-Hydroxy-3-(4-phenoxyphenoxy)propyl]amino}ethyl)anilino]-1,3-thiazolidine-2,4-dione] | 72 to 74 °C
O=C1NC(=O)C(Nc2ccc(CCNCC(O)COc3cccc4ccccc34)cc2)S1 (stereo not shown) (hydrate or solvate) [Example 23, 5-(4-{2-[2-Hydroxy-3-(naphthalen-1-yloxy)-propylamino]-ethyl}-phenylamino)-thiazolidine-2,4-dione] | 61 to 62 °C
CS(=O)(=O)Nc1cc([C@H](O)CNCCc2ccc(NC3SC(=O)NC3=O)cc2)ccc1O (stereo partly shown) (as salt: salt) (hydrate or solvate) [Example 14, N{5-[(1 S)-2-({4-[(2,4-Dioxo-1,3-thiazolidin-5-yl)amino]phenethyl}amino)-1-hydroxyethyl]-2-hydroxyphenyl}methanesulfonamide] | 130 °C
O=C1NC(=O)C(Nc2ccc(CCNC[C@H](O)COc3ccccc3)cc2)S1 (stereo partly shown) (as salt: salt) (hydrate or solvate) [Example 9, 5-[4-(2-{[(2 S)-2-Hydroxy-3-phenoxypropyl]amino}ethyl)anilino]-1,3-thiazolidine-2,4-dione] | 55 °C
CN1C(=O)SC(Nc2ccc(CCNC[C@H](O)COc3ccc(OCc4ccccc4)cc3)cc2)C1=O (stereo partly shown) (as salt: HBr) [Example 2, 5-{4-[2-({(2 S)-3-[4-(Benzyloxy}phenoxy]-2-hydroxypropyl}amino)ethyl]anilino}-3-methyl-1,3-thiazolidine-2,4-dione] | 165 to 167 °C
O=C1NC(=O)C(Nc2ccc(CCNC[C@@H](O)c3cccnc3)cc2)S1 (stereo partly shown) (hydrate or solvate) [Example 30, 5-{4-[2-((2 S)-2-Hydroxy-2-pyridin-3-yl-ethylamino)-ethyl]-phenylamino}-thiazolidine-2,4-dione] | 46 to 48 °C
CC(Cc1ccc(NC2SC(=O)NC2=O)cc1)NC[C@H](O)c1cccc(Cl)c1 (stereo partly shown) (as salt: salt) (hydrate or solvate) [Example 18, 5-[4-(2-{[(2 R)-2-(3-Chlorophenyl)-2-hydroxyethyl]amino}propyl)anilino]-1,3-thiazolidine-2,4-dione] | 83 to 85 °C
O=C1NC(=O)C(Nc2ccc(CCNC[C@H](O)COc3ccc(F)cc3)cc2)S1 (stereo partly shown) (as salt: salt) (hydrate or solvate) [Example 8, 5-[4-(2-{[(2 S)-3-(4-Fluorophenoxy)-2-hydroxypropyl]amino}ethyl)anilino]-1,3-thiazolidine-2,4-dione] | 55 °C
O=C1NC(=O)C(Nc2ccc(CCNC[C@H](O)COc3ccc4ccccc4c3)cc2)S1 (stereo partly shown) (hydrate or solvate) [Example 21, 5-(4-{2-[(2 S)-2-Hydroxy-3-(naphthalen-2-yloxy)-propylamino]-ethyl}-phenylamino)-thiazolidine-2,4-dione] | 90 to 91 °C
O=C1NC(=O)C(Nc2ccc(CCNC[C@H](O)c3ccccc3)cc2)S1 (stereo partly shown) (as salt: salt) [Example 7, 5-[4-(2-{[(2 R)-2-Hydroxy-2-phenylethyl]amino}ethyl)anilino]-1,3-thiazolidine-2,4-dione] | 55 °C
CN(c1ccc(CCNC[C@H](O)COc2ccc(OCc3ccccc3)cc2)cc1)C1SC(=O)NC1=O (stereo partly shown) (as salt: salt) [Example 26, 5-[(4-{2-[(2 S)-3-(4-Benzyloxy-phenoxy)-2-hydroxy-propylamino]-ethyl}-phenyl)-methyl-amino]-thiazolidine-2,4-dione] | 51 to 53 °C
CN(c1ccc(CCNC[C@H](O)COc2ccccc2)cc1)C1SC(=O)NC1=O (stereo partly shown) (as salt: salt) (hydrate or solvate) [Example 17, 5-[4-(2-{[(2 S)-2-Hydroxy-3-phenoxypropyl]amino}ethyl)(methyl)anilino]-1,3-thiazolidine-2,4-dione.] | 58 °C
O=C1NC(=O)C(Nc2ccc(CCNC[C@H](O)COc3cccc4[nH]c5ccccc5c34)cc2)S1 (stereo partly shown) (as salt: salt) (hydrate or solvate) [Example 13, 5-[4-(2-{[(2 S)-3-(9 H-Carbazol-4-yloxy)-2-hydroxypropyl]amino}ethyl)anilino]-1 ,3-thiazolidine-2,4-dione] | 140 °C
O=C1NC(=O)C(Nc2ccc(CCNC[C@H](O)COc3cccc(O)c3)cc2)S1 (stereo partly shown) (as salt: salt) (hydrate or solvate) [Example 12, 5-[4-(2-{[(2 S)-2-Hydroxy-3-(3-hydroxyphenoxy)propyl]amino}ethyl)anilino]-1,3-thiazolidine-2,4-dione] | 65 °C
O=C1NC(=O)C(Nc2ccc(CCNC[C@H](O)COc3ccc4occc4c3)cc2)S1 (stereo partly shown) (as salt: salt) (hydrate or solvate) [Example 15, 5-[4-(2-{[(2 S)-3-(1-Benzofuran-5-yloxy)-2-hydroxypropyl]amino}ethyl)anilino]-1,3-thiazolidine-2,4-dione] | 50 °C
O=C1NC(=O)C(Nc2ccc(CCNC[C@H](O)c3cccnc3)cc2)S1 (stereo partly shown) (hydrate or solvate) [Example 31, 5-{4-[2-((2 R)-2-Hydroxy-2-pyridin-3-yl-ethylamino)-ethyl]-phenylamino}-thiazolidine-2,4-dione] | 65 to 67 °C
O=C1NC(=O)C(N(CC#Cc2ccc(F)cc2)c2ccc(CCNC[C@H](O)COc3ccc(OCc4ccccc4)cc3)cc2)S1 (stereo partly shown) (hydrate or solvate) [Example 27, 5-[(4-{2-[(2 S)-3-(4-Benzyloxy-phenoxy)-2-hydroxy-propylamino]-ethyl}-phenyl)-[3-(4-fluoro-phenyl)-prop-2-ynyl]-amino}-thiazolidine-2,4-dione] | 99 to 101 °C
O=C1NC(=O)C(Nc2ccc(CCNC[C@H](O)COc3ccc4c(c3)OCO4)cc2)S1 (stereo partly shown) (hydrate or solvate) [Example 24, 5-(4-{2-[(2 S)-3-(Benzo[1,3]dioxol-5-yloxy)-2-hydroxy-propylamino]-ethyl}-phenylamino)-thiazolidine-2,4-dione] | 65 °C (dec.)
O=C1NC(=O)C(N(Cc2ccc(Br)cc2)c2ccc(CCNC[C@H](O)COc3ccccc3)cc2)S1 (stereo partly shown) (hydrate or solvate) [Example 29, 5-((4-Bromo-benzyl)-{4-[2-((2 S)-2-hydroxy-3-phenoxy-propylamino)-ethyl]-phenyl}-amino)-thiazolidine-2,4-dione] | 52 to 54 °C
O=C1NC(=O)C(Nc2ccc(CCNC[C@H](O)COc3ccc(-c4ccccc4)cc3)cc2)S1 (stereo partly shown) [Example 22, 5-(4-{2-[(2 S)-3-(Biphenyl-4-yloxy)-2-hydroxy-propylamino]-ethyl}-phenylamino)-thiazolidine-2,4-dione] | 70 to 71 °C
O=C1NC(=O)C(N(Cc2ccc(Br)cc2)c2ccc(CCNC[C@H](O)COc3ccc(OCc4ccccc4)cc3)cc2)S1 (stereo partly shown) (as salt: salt) [Example 25, 5-[(4-{2-[(2 S)-3-(4-Benzyloxy-phenoxy)-2-hydroxy-propylamino]-ethyl}-phenyl)-(4-bromo-benzyl)-amino]-thiazolidine-2,4-dione] | 50 to 52 °C
O=C1NC(=O)C(Nc2ccc(CCNC[C@@H](O)COc3cccc4[nH]c(=O)[nH]c34)cc2)S1 (stereo partly shown) (as salt: salt) [Example 19, 5-{4-[2-({(2 R)-2-Hydroxy-3-[(2-oxo-2,3-di hydro-1 H-benzimidazol-4-yl)oxy]propyl}amino)ethyl]anilino}-1,3-thiazolidine-2,4-dione] | 172 °C
